Consider one molecule from patent publication US5914348A, “Substance FA-70D, process for producing the same, and uses thereof” (Taiho Pharmaceutical Co., Ltd., priority 1996, dated 1999).

Structures are written as SMILES. Numbered stars: 1 amine (or outer) side, 2 acyl side, 3 side chain; on linkers, the order of the positions; unused ones are H or OH. Square brackets hold non-standard residues; d marks the D form. Peptide text beside a SMILES is read from it. Cit = NC(=O)NCCC[CH](N)C(=O)O; Phe(ol) = N[CH](CO)Cc1ccccc1; CO = O=C([*:1])[*:2]

For data set [1], the system named is cathepsin series proteases. Kind of data set: Inhibition of cathepsin series proteases. In kind it is biochemical. The procedure:
(§1) The inhibitory activity against cathepsin L or cathepsin B was assayed by the method of A. J. Barrett et al. [Biochemical Journal, 201, 189-198, 1982]. The chymotrypsin- or trypsin-hibitory activity was assayed in accordance with the methods described in Tsuru, D. and Funatsu, M. (ed.), Seikagaku Jikkenho-Tanpakushitsu Bunkai Koso II [Methods of Biochemistry, Proteolytic Enzymes II], vol. 31, 7-14, 1993.
(§2) The method for assay of inhibitory activity against cathepsin B is as follows. Thus, 0.5 ml of 400 mM sodium phosphate buffer (pH 6.0) containing 8 mM dithiothreitol and 4 mM tetrasodium ethylenediaminetetracetate, 0.8 ml of an enzyme solution containing 5 μM cathepsin B and 0.1% Brij 35 (Wako Pure Chemical Ind.), and 0.2 ml of an aqueous solution of the compound of the invention were preincubated at 40° C. for 10 minutes. […] The intensity of fluorescence (F) was determined at an exciting wavelength of 350 nm and an emission wavelength of 458 nm. As a control, 0.2 ml of water was added in lieu of 0.2 ml of said aqueous solution of the compound of the invention and the intensity of fluorescence (F0) at 458 nm was similarly measured. The enzyme inhibitory activity was calculated by means of the following formula. […]

The next data set can be described thus: Solubility. In kind it is physicochemical.
For the next data set, the target named is chymotrypsin (Bos taurus, UniProt P00766). Kind of data set: Inhibitory activity against chymotrypsin (fluorescence, succinyl-L-leucyl-L-leucyl-L-valyl-L-tyrosine-4-methylcoumaryl-7-amide substrate). In kind it is biochemical. The method, then:
as §1
(§3) The inhibitory activity against chymotrypsin was assayed in the following manner. Thus, 0.1 ml of 100 mM Tris-HCl buffer (pH 7.5), 0.15 ml of water, 0.01 ml of 5 ng/ml chymotrypsin/water, and 0.04 ml of an aqueous solution of the compound of the invention were preincubated at 37° C. for 5 minutes. Then, 0.1 ml of an aqueous solution containing 100 μM succinyl-L-leucyl-L-leucyl-L-valyl-L-tyrosine-4-methylcoumaryl-7-amide was added and the mixture was incubated at 37° C. for 20 minutes. The enzymatic reaction was stopped by adding 0.5 ml of 100 mM sodium acetate buffer (pH 4.3) containing 100 mM sodium monochloroacetate and the intensity of fluorescence (F) was measured at an exciting wavelength of 350 nm and an emission wavelength of 458 nm. As a control, 0.04 ml of water was added in lieu of 0.04 ml of said aqueous solution of the compound of the invention and the intensity of fluorescence (F0) at 458 nm was similarly measured. The enzyme inhibitory activity was calculated by the following formula.
(§4) Enzyme inhibitory activity (%)=F/F0 ×100

The target of another data set is cathepsin L (Homo sapiens, UniProt P07711). Kind of data set: Inhibitory activity against cathepsin L (fluorescence, carbobenzoxy-L-phenylalanyl-L-arginine-4-methylcoumaryl-7-amide substrate). The format is biochemical. The method, then: as §1
The method for assay of inhibitory activity against cathepsin B is as follows. Thus, 0.5 ml of 400 mM sodium phosphate buffer (pH 6.0) containing 8 mM dithiothreitol and 4 mM tetrasodium ethylenediaminetetracetate, 0.8 ml of an enzyme solution containing 5 μM cathepsin B and 0.1% Brij 35 (Wako Pure Chemical Ind.), and 0.2 ml of an aqueous solution of the compound of the invention were preincubated at 40° C. for 10 minutes. Then, 0.5 ml of a 0.1% aqueous solution of dimethyl sulfoxide containing 20 μM carbobenzoxy-L-phenylalanyl-L-arginine-4-methylcoumaryl-7-amide was added and the mixture was incubated at 40° C. for 10 minutes. The enzymatic reaction was then stopped by adding 2.0 ml of 100 mM sodium acetate buffer (pH 4.3) containing 100 mM sodium monochloroacetate. The intensity of fluorescence (F) was determined at an exciting wavelength of 350 nm and an emission wavelength of 458 nm. As a control, 0.2 ml of water was added in lieu of 0.2 ml of said aqueous solution of the compound of the invention and the intensity of fluorescence (F0) at 458 nm was similarly measured. The enzyme inhibitory activity was calculated by means of the following formula.
as §4
The inhibitory activity against cathepsin L was assayed as follows. Thus, except that cathepsin L was used in lieu of cathepsin B at the same concentration and the 400 mM sodium phosphate buffer was adjusted to pH 5.5, the above assay procedure for cathepsin B was otherwise repeated to determine the enzyme inhibitory activity.

Another data set concerns the target T1, papain (Carica papaya, UniProt P00784).
T1 sequence (P00784 134-345): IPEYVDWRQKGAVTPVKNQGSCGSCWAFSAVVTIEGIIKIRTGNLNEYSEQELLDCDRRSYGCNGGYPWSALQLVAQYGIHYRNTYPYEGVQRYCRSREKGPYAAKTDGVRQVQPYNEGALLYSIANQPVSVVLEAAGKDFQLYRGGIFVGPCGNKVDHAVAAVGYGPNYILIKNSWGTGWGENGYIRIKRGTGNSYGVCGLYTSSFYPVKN
Kind of data set: Assay of papain inhibitory activity. The format is biochemical. To be noted: used for identification during purification. The method, then: Detection of active fractions containing Substance FA-70D in each stage was carried out by the assay of papain inhibitory activity (Biochemical Journal, 201, 189-198, 1982).
Thus, 0.5 ml of 400 mM sodium phosphate buffer (pH 6.8) containing 8 mM dithiothreitol and 4 mM tetrasodium ethylenediaminetetracetate, 0.8 ml of an enzyme solution containing 5 μM papain and 0.1% Brij 35 (polyoxyethylene (23) lauryl ether) (Wako Pure Chemical Ind.), and 0.2 ml of an aqueous solution containing a sample were preincubated at 40° C. for 10 minutes. Then, 0.5 ml of a 0.1% aqueous solution of dimethyl sulfoxide containing 20 μM carbobenzoxy-L-phenylalanyl-L-arginine-4-methylcoumaryl-7-amide was added and the mixture was incubated at 40° C. for 10 minutes. The enzymatic reaction was stopped by adding 2.0 ml of 100 mM sodium acetate buffer (pH 4.3) containing 100 mM sodium monochloroacetate and the intensity of fluorescence (F) was measured at an exciting wavelength of 350 nm and an emission wavelength of 458 nm. As a control, 0.2 ml of water was added in lieu of 0.2 ml of said aqueous solution of the sample and the intensity of fluorescence (F0) at 458 nm was similarly measured. The enzyme inhibitory activity was calculated by means of the following formula.
as §4

The next data set deals with T2, trypsin (Bos taurus, UniProt P00760).
T2 sequence (P00760 24-246): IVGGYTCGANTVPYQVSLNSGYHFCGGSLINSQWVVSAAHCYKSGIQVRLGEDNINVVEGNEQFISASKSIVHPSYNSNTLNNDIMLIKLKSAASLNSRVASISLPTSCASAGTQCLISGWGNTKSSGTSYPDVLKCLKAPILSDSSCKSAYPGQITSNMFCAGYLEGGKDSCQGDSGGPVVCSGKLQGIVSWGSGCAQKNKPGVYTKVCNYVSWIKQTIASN
Kind of data set: Inhibitory activity against trypsin (fluorescence, benzoyl-L-leucyl-L-lysyl-arginine-4-methylcoumaryl-7-amide substrate). In kind it is biochemical. Particulars: pH 7.5, 37° C., read-out: Enzyme inhibitory activity (%). The method, then: as §1, §3, §4
The inhibitory activity against trypsin was measured as follows. Except that trypsin was used in lieu of chymotrypsin at the same concentration and benzoyl-L-leucyl-L-lysyl-arginine-4-methylcoumaryl-7-amide was used in lieu of succinyl-L-leucyl-L-leucyl-L-valyl-L-tyrosine-4-methylcoumaryl-7-amide at the same concentration, the above procedure for assaying the inhibitory activity against chymotrypsin was otherwise repeated and the enzyme inhibitory activity was calculated in the same manner as above.

For another data set, the target named is cathepsin B (Homo sapiens, UniProt P07858). Kind of data set: Inhibitory activity against cathepsin B (fluorescence, carbobenzoxy-L-phenylalanyl-L-arginine-4-methylcoumaryl-7-amide substrate). In kind it is biochemical. Particulars: pH 6.0, 40° C., read-out: Enzyme inhibitory activity (%). The method, then:
as §1, §2

cathepsin L, sequence (P07711 114-333, species assumed): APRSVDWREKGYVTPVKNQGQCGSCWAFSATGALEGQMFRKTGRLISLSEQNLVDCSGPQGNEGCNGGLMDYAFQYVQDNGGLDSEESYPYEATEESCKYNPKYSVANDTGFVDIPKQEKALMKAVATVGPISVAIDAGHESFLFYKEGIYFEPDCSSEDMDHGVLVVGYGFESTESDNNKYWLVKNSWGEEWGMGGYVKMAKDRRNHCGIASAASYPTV

As to `CC(C)C(NC(=O)C(CCCNC(N)=O)NC(=O)NC(Cc1ccccc1)C(=O)O)C(=O)NC(CO)Cc1ccccc1` (stereo not drawn) [Substance FA-70D] ({Phe-CO}-[Cit]-Val-[Phe(ol)]; configuration not given here), the “inhibit cathepsin series proteases” value in data set [1] is listed as “strongly inhibit”. For the same molecule, the Solubility result in the data set “Solubility” (in chloroform, acetone, ethyl acetate, ether, and hexane) is recorded as “Practically insoluble”; in the data set “Solubility” (in ethanol) it was “slightly soluble”; in the data set “Solubility” (in methanol and dimethylsulfoxide), “readily soluble”. Moreover, the “inhibits chymotrypsin more strongly than trypsin” value on chymotrypsin (chymotrypsin vs trypsin, Test Example 1) is “inhibits chymotrypsin more strongly than trypsin”. In addition, the inhibition at 1 µM on chymotrypsin (chymotrypsin, FA-70D 10^-6 M, pH 7.5, 37° C., read-out: Enzyme inhibitory activity (%)) was 99.9%; at cathepsin L (cathepsin L, FA-70D 10^-6 M, pH 5.5, 40° C., read-out: Enzyme inhibitory activity (%)) it was 93.5%; at trypsin (FA-70D 10^-6 M), 43.3%; on cathepsin B (FA-70D 10^-6 M), 85.5%. Besides, the inhibition at 0.1 µM on chymotrypsin (chymotrypsin, FA-70D 10^-7 M, pH 7.5, 37° C., read-out: Enzyme inhibitory activity (%)) worked out at 97.6%; at cathepsin L (cathepsin L, FA-70D 10^-7 M, pH 5.5, 40° C., read-out: Enzyme inhibitory activity (%)), 72%; on trypsin (FA-70D 10^-7 M), 14%; on cathepsin B (FA-70D 10^-7 M), 23.7%. Also, the inhibition at 0.01 µM on chymotrypsin (chymotrypsin, FA-70D 10^-8 M, pH 7.5, 37° C., read-out: Enzyme inhibitory activity (%)) amounted to 70.7%; on cathepsin L (cathepsin L, FA-70D 10^-8 M, pH 5.5, 40° C., read-out: Enzyme inhibitory activity (%)), 15.1%; on trypsin (FA-70D 10^-8 M), 9.4%. For the same molecule, at cathepsin L (cathepsin L vs cathepsin B, Test Example 1), the “inhibits cathepsin L more strongly than cathepsin B” value is recorded as “inhibits cathepsin L more strongly than cathepsin B”. In addition, the “enzymatic activity of papain inhibited by the substance” value on papain is on record as “inhibited by the substance”.
